The nature of series [1]: Solubility in various solvents at 25° C. and 50° C. It counts as physicochemical.
Series [2] is described as follows: Second CACO-2 study, propranolol as reference. It counts as in vitro ADME. The conditions noted are these: human, Caco-2. The source says:
(§1) The second CACO-2 study gave somewhat different results (Table 12). Because metoprolol interferes with the LC/MS assay, propranolol, which has a permeability that is […] metoprolol, was used as the FDA calibration compound. The apical pH was controlled at 6 and basolateral pH at pH 7. In addition, verapamil was used as a competitive inhibitor of the Pgp (P-glycoprotein) transporter. The ratios to propranolol were 1.00 and 0.77 with and without verapamil. […] The B→A/A→B ratios were low at 0.3 and 0.3, with and without verapamil, respectively, indicating again no efflux […].

For series [3], the system named is CACO-2. Briefly: Second CACO-2 study, propranolol as reference. The class given is in vitro ADME. The settings on record: for Ratio to Propranolol: A → B.
Source text: as §1

Series [4] can be described thus: Oral bioavailability in dog. The conditions noted are these: in vivo, read-out: Oral bioavailability (F %). The procedure:
(§2) Solubility is enhanced slightly in the 2% Tween/0.5% methylcellulose toxicology vehicle, ranging from […]. 2% Tween may also increase GI membrane permeability.
(§3) A prolonged absorption phase was observed together with decreasing bioavailability with increasing dose in both animal species. […] However, the absorption at pharmacological doses seemed reasonably complete albeit with delayed Tmax at lower GI when the drug is more soluble.

A further series can be described thus: physchem. The procedure:
The pH solubility profile was generated first with Sample D containing polymorph Form A, and then with Sample F containing polymorph Form B, in HCl/NaOH solutions. After 24 hour equilibration, suspensions were centrifuged and the supernatants assayed by HPLC.
The solubility data was analyzed as a function of pH using the Henderson-Hasselbach equation:
Solubility=S0·[10^(PH-pKa)+1],
where S0 is the intrinsic solubility of the free acid.

Series [5] is described as follows: Oral bioavailability in rat. The conditions noted are these: in vivo, read-out: Oral bioavailability (F %). The procedure: as §2, §3
The nature of series [6]: In situ rat perfusion model, metoprolol as reference. The class given is in vivo. The settings on record: rat. The source says:
The permeability was 18.2 nm/sec, which is higher than the 14.5 nm/sec value obtained for metoprolol (Table 13).

The nature of series [7]: Solubility in water and toxicology vehicle (animal formulation). The class given is physicochemical. The procedure:
as §2

A short description of series [8]: First CACO-2 study, metoprolol as reference. The conditions noted are these: human; for recovery: Caco-2, pH 7.4, % Recovery, pH 7.4.
Series [9] deals with CACO-2. Briefly: First CACO-2 study, metoprolol as reference. The conditions noted are these: for Ratio to Metoprolol: pH 7.4.
Series [10] is described as follows: Forced degradation study (solution stability). The class given is physicochemical. The settings on record: 387 μg/mL with 25% acetonitrile in acid, base, peroxide and water under heat and light stress. The procedure: A forced degradation study was performed to generate potential degradation products and assess stability liabilities.
A short description of series [11]: Slurry in water at 50° C. (polymorphic transformation). The class given is physicochemical. The settings on record: slurry in water at 50° C. for 12-24 hr. The procedure:
Powder XRD patterns comparing the starting material to polymorph pseudo Form A are shown in FIG. 34, and DSC thermograms of both batches at 50° C. are shown in FIG. 35.

Series [12] relates to CACO-2. The settings on record: human, Caco-2, pH 7.4.
A short description of a further series: in vitro. The conditions noted are these: human, Caco-2, pH 7.4.

The values below come from patent US20100216886A1, “POLYMORPHS OF N2-(1,1'-BIPHENYL-4-YLCARBONYL)-N1-[2-(4-FLUOROPHENYL)-1,1-DIMETHYLETHYL]-L-ALPHA-GLUTAMINE” (Wyeth, priority 2006, published 2010).

≈ marks a conversion by molar mass, not a printed value. Some results are limits rather than exact numbers.

`CC(C)(Cc1ccc(F)cc1)NC(=O)[C@H](CCC(=O)O)NC(=O)c1ccc(-c2ccccc2)cc1` [Compound (I), N^2-(1,1′-biphenyl-4-ylcarbonyl)-N^1-[2-(4-fluorophenyl)-1,1-dimethylethyl]-L-α-glutamine]: the solubility (commonly the concentration that dissolves in the medium under given conditions) was 1600 µg/mL (≈ 3.36 mM) in [1] (Water, 25° C.); 1800 µg/mL (≈ 3.78 mM) in series [1] (Water, 50° C.); 43000 µg/mL (≈ 90.2 mM) in series [1] (organic solvent or mixture, Acetonitrile, 25° C.); > 133000 µg/mL in [1] (organic solvent or mixture, Acetonitrile, 50° C.); > 109000 µg/mL in [1] (organic solvent or mixture, EtAc (ethyl acetate), 25° C.); > 137000 µg/mL in series [1] (organic solvent or mixture, Ethanol, 25° C.). Besides, the solubility in series [1] (organic solvent or mixture, Heptane, 25° C.) was 700 µg/mL (≈ 1.47 mM); in [1] (organic solvent or mixture, Isopropyl acetate (IPAc), 25° C.), 76100 µg/mL (≈ 160 mM); in [1] (organic solvent or mixture, Isopropyl acetate (IPAc), 50° C.), > 123000 µg/mL; in series [1] (organic solvent or mixture, Isopropyl alcohol (IPA), 25° C.), > 122000 µg/mL; in series [1] (organic solvent or mixture, Toluene, 25° C.), 4300 µg/mL (≈ 9.02 mM); in series [1] (organic solvent or mixture, Toluene, 50° C.) it was 15600 µg/mL (≈ 32.7 mM). In addition, the solubility in [7] (2% Tween/0.5% methylcellulose toxicology vehicle, aqueous with cosolvent or surfactant or cyclodextrin, read-out: Solubility in toxicology vehicle) is 220 to 470 µg/mL (≈ 0.462 to 0.986 mM); in series [7] (water, pH 5.5, water, read-out: solubility in water), < 100 µg/mL. Further, the Papp A→B – broadly, the apparent permeability from the apical to the basolateral side of a cell layer – stood at 62.4 ×10⁻⁶ cm/s in series [2] (A → B, apical pH 6, basolateral pH 7, without verapamil) and 14.9 ×10⁻⁶ cm/s in [8] (Caco-2, pH 7.4). The Papp B→A (as a rule, the apparent permeability from the basolateral to the apical side of a cell layer) amounted to 18.5 ×10⁻⁶ cm/s in series [2] (B → A, apical pH 6, basolateral pH 7, without verapamil) and 37.4 ×10⁻⁶ cm/s in series [8] (Caco-2, pH 7.4). Besides, the efflux ratio in series [2] (without verapamil, read-out: Ratio of B→A/A→B) was determined as 0.3; in series [8] (Caco-2, pH 7.4) it was 2.36. Also, the figures for the “Ratio to Propranolol” value in the series on CACO-2 [3] (plus Verapamil) and in the series with CACO-2 [3] (without verapamil) were 0.77 and 1.00, respectively. Moreover, the “mean ratio to propranolol” value in the series on CACO-2 [3] (average of values with and without verapamil) stood at 0.88. In addition, the “Ratio of B→A/A→B” value in the series on CACO-2 [3] (plus Verapamil) and in the series on CACO-2 [3] (without verapamil) was 0.3 each time. In addition, the Permeability classification result was “low permeability” in the series with CACO-2 [3] (versus propranolol); “high permeability” in series [6]; “low permeability” in the series with CACO-2 [9] (pH 7.4, versus metoprolol). Further, the bioavailability (commonly the share of a dose that reaches the circulation, judged against a reference dose that is usually intravenous) in series [4] (Tox suspension, 25 mg/kg) is ~100%; in [4] (capsule containing neat drug) it was 65%; in series [5] (100 mg/kg), ~100%; in series [5] (Tox suspension, 25 mg/kg) it was 29%. In addition, the pKa (as a rule, the negative logarithm of the acid dissociation constant) in the series “physchem” came to 5.3. The solubility at 24 h in the series “physchem” (aqueous buffer, thermodynamic from solid, S0 (intrinsic solubility of the free acid)) worked out at 4.5 µg/mL (≈ 0.00944 mM). Besides, the Papp (as a rule, a coefficient for how fast a substance crosses the barrier) at 20 μg/mL in [6] was found to be 1.82 ×10⁻⁶ cm/s. Further, in series [6] (in vivo, 20 μg/mL), the “Peff × 10^−1 (μm/sec)” value was 1.82 × 10^−1 μm/sec. For the same molecule, the “Ratio to Metoprolol” value in [6] (in vivo, 20 μg/mL) stood at 1.26; with CACO-2 [9] (A → B), 0.25; in the series on CACO-2 [9] (B → A), 0.59. The “resulting pH” value in [7] (water) is on record as “around 5.5”. Also, the results for the recovery in series [8] (A → B) and in series [8] (B → A) were 100% and 156%, respectively. For the same molecule, the Forced degradation result in [10] is “subject to acid and peroxide degradation”. Also, the “Change of powder XRD pattern or melting point / polymorphic transformation” value in series [11] is “not observed”.

For the molecule `C[C@H]1O[C@@H](O[C@H]2[C@@H](O)C[C@H](O[C@H]3[C@@H](O)C[C@H](O[C@H]4CC[C@@]5(C)[C@H](CC[C@@H]6[C@@H]5C[C@@H](O)[C@]5(C)[C@@H](C7=CC(=O)OC7)CC[C@]65O)C4)O[C@@H]3C)O[C@@H]2C)C[C@H](O)[C@@H]1O` [DigoxinS], the “% Recovery” value in the series on CACO-2 [12] came to 117%. In the series “in vitro”, this molecule yielded a Papp A→B of 2.06 ×10⁻⁶ cm/s and a Papp B→A of 29.4 ×10⁻⁶ cm/s.
